Data: article PMC4229119, “Alzheimer's Therapeutics Targeting Amyloid Beta 1–42 Oligomers II: Sigma-2/PGRMC1 Receptors Mediate Abeta 42 Oligomer Binding and Synaptotoxicity” (PLoS ONE, 2014)

What was measured:
sigma-2/PGRMC1 receptor = target: T1, sigma-2/PGRMC1 receptor (Homo sapiens, UniProt Q5BJF2); assay: Sigma-2 radioligand binding ([3H]DTG competition, Jurkat cell membranes; Cerep 0148); conditions: homogenates of a human T cell line; mean ± S.E.M.; read-out: Ki, displacement of selective radioligand [3H]-DTG from sigma-2/PGRMC1 receptor
T1 construct: host or cells: Jurkat cell membranes
Method: Radioligand competition assays were performed in membranes from Jurkat cells using 5 nM [^3H]1,3-di(2-tolyl) guanidine in the presence of 1 µM (+)-pentazocine with 10 µM haloperidol to define non-specific binding.

[1] = target: T2, sigma-2/PGRMC1 receptors in human brain (Homo sapiens, UniProt Q5BJF2); assay: Quantitative autoradiography, radioligand displacement from human frontal cortex sections; conditions: serial sections of unfixed frozen cognitively normal elderly human frontal cortex; 10-10,000 nM compound; N = 4; read-out: Ki at the [125I]RHM-1 binding site, human frontal cortex
T2 construct: serial sections of unfixed frozen cognitively normal elderly human frontal cortex; from tissue; host or cells: human frontal cortex, unfixed frozen sections
Method: Quantitative autoradiography studies on frozen unfixed serial tissue sections from normal (N = 4) or Alzheimer's disease (N = 4) postmortem patients' neocortex were conducted and quantified according to previously published procedures [40]. [^3H](+) pentazocine was used as the radioligand for sigma-1 receptors and [^125I]RHM-1 (American Radiolabelled Chemicals, Inc.) or [^3H]DTG (1,3-Di-(2-tolyl)guanidine (Perkin Elmer) in the presence of 1 µM (+) pentazocine for sigma-2 receptors [32]. Human brain samples for these studies were obtained with written consent as previously published [40].

caspase-3/7 [2] = assay: Caspase-3/7 activation in primary hippocampal/cortical cultures; format: cell-based, rat; conditions: for activation of caspase-3/7: primary hippocampal/cortical cultures
Method: (§1) Little is known about the functional pharmacology of ligands for the sigma-2/PGRMC1 receptor. […] Finally, we treated hippocampal and cortical cultures with ascending concentrations of SV119 to induce caspase activation, in the presence of 40 µM of each of the sigma-2/PGRMC1 antagonists CT0109, CT0093 and RHM-1 ( Fig. 8E ).

caspase-3/7 [3] = assay: Caspase-3/7 activation in SKOV-3 tumor cell line; format: cell-based, human
[4] = test system: primary hippocampal/cortical cultures; assay: Cell death in mature primary neuronal cultures; format: cell-based, rat
[5] = test system: SKOV-3 human ovarian cancer cells; assay: Cell death in SKOV-3 human ovarian cancer cells; format: cell-based
caspase-3/7 [6] = assay: SV119-induced caspase-3/7 activation in hippocampal and cortical cultures, co-treatment with antagonists; format: cell-based, rat; conditions: for block of the activation of caspase-3/7 by SV119: 40 µM antagonist, ascending concentrations of SV119, hippocampal and cortical cultures
Method: as §1

Sigma-1 = target: T3, Sigma-1 (Homo sapiens, UniProt Q99720); assay: Cerep panel: Sigma-1 radioligand binding; conditions: Cerep 0889
T3 construct: purchased Cerep/Eurofins, Inc. 0889
Method: (§2) Active CogRx molecules were counterscreened for activity at 100 central nervous system receptors and enzymes (including those involved in neurotransmission and synaptic plasticity) in industry-standard assays measuring radioligand binding displacement and signaling activity (assays performed at Cerep/Eurofins, Inc., Table S1). […] To determine if these compounds were capable of displacing binding to sigma-2/PGRMC1 receptors in human brain, CT0093 and CT0109 were added in increasing concentrations to serial sections of unfixed frozen cognitively normal elderly human frontal cortex in the presence of a specific radioligand for sigma-2/PGRMC1, ^125I-RHM-4 [31] ( Fig. 1 B–D ).

mu opioid = target: T4, mu opioid (Homo sapiens, UniProt P35372); assay: Cerep panel: mu opioid radioligand binding; conditions: Cerep 0118
T4 construct: purchased Cerep/Eurofins, Inc. 0118
Method: as §2

Na^+ Channel (site2) = assay: Cerep panel: Na+ Channel (site2) radioligand binding; conditions: Cerep 0169
Method: as §2

Dopamine 3 = target: T5, Dopamine 3 (Homo sapiens, UniProt P35462); assay: Cerep panel: Dopamine 3 agonist activity; format: cell-based; conditions: Cerep 0683
T5 construct: purchased Cerep/Eurofins, Inc
Method: as §2

[7] = test system: mixed cultures of hippocampal plus cortical neurons and glia; parameters: method as in PMID 25390368; conditions: cited from earlier work
synapses = test system: synapses; parameters: method as in PMID 25390368; conditions: cited from earlier work
[8] = test system: mouse models of Alzheimer's disease; parameters: method as in PMID 25390368; conditions: cited from earlier work
[9] = target: hippocampal and cortical neurons; assay: Abeta binding assay (Abeta oligomer binding to synaptic puncta of cultured neurons); format: cell-based, rat
Method: To assess the ability of test compounds to prevent the binding of Abeta oligomers, cultures were treated with compounds for 30 minutes, followed by synthetic Abeta 1–42 oligomer preparation treatment for 60 min (total Abeta concentration 0.5 µM, equivalent to Kd concentration). Alternatively, displacement of prebound oligomers was evaluated by adding oligomers 60 min prior to the addition of compounds, followed by additional 30 minutes incubation. […]
Neuronal cultures were treated with either a mixture of 4 siRNAs targeted against PGRMC1 (GUCUAGGUCUUGGAUAAUA, GGUUUUACCUCAAAUCAGA, UUAGAAUGCAUGAUGUGUU, CUUCUAUCUGUAGUUAAAA, catalog number A-095365-00-0050) or a non-targeting sequence (UGGUUUACAUGUUUUCCUA, catalog number D-001910-03-50, Accell, ThermoFisher). siRNA were resuspended to 100 µM in RNase free water, shaken for 1.5 hours at 37°C, diluted in media and applied to cells at 1 or 2 uM for 48 hours prior to addition of Abeta oligomers for 30 minutes. Cultures were then fixed and co-immunolabeled with 6E10 antibody to detect Abeta and antibody to detect PGRMC1 as described above and analyzed via automated image processing as described above. For PGRMC1 measurements, total intensity in cell bodies was measured. […]

sigma-2/PGRMC1 = assay: Immunofluorescent sigma-2/PGRMC1 expression in neuronal cultures; format: cell-based, rat; conditions: for increase of total intensity of sigma-2/PGRMC1 expression in the cell body: 400 nM Abeta oligomers, pooled neurons and glia, vs vehicle
Method: To assess the ability of test compounds to prevent the binding of Abeta oligomers, cultures were treated with compounds for 30 minutes, followed by synthetic Abeta 1–42 oligomer preparation treatment for 60 min (total Abeta concentration 0.5 µM, equivalent to Kd concentration). Alternatively, displacement of prebound oligomers was evaluated by adding oligomers 60 min prior to the addition of compounds, followed by additional 30 minutes incubation. Cells were fixed with 3.75% formaldehyde for 15 min, blocked with 5% normal goat serum and 0.5% Triton X-100 and incubated with primary antibodies for Abeta (1 µg/ml 6E10 or 4G8, Covance catalog numbers SIG-39320 and SIG-39330, respectively), MAP-2 (0.2 µg/ml Chemicon), Synaptophysin-1 (1 µg/ml, Anaspec), glial fibrillary acidic protein (GFAP, 1 µg/ml, Thermo-Fisher) and fluorescently labeled secondary antibodies (2 µg/ml, Invitrogen). Images were acquired on a Cellomics VTi automated microscope with a 20X, 0.75 NA objective and analyzed using ThermoFisher/Cellomics Neuronal Profiling bioapplication set to measure punctate labeling of Abeta and synaptophysin-1 along MAP-2 labeled neurites. For each replicate experiment, at least 100 neurons were sampled from 4 replicate wells for each experimental condition (400 to 500 neurons per experimental condition). […]
Neuronal cultures were treated with either a mixture of 4 siRNAs targeted against PGRMC1 (GUCUAGGUCUUGGAUAAUA, GGUUUUACCUCAAAUCAGA, UUAGAAUGCAUGAUGUGUU, CUUCUAUCUGUAGUUAAAA, catalog number A-095365-00-0050) or a non-targeting sequence (UGGUUUACAUGUUUUCCUA, catalog number D-001910-03-50, Accell, ThermoFisher). siRNA were resuspended to 100 µM in RNase free water, shaken for 1.5 hours at 37°C, diluted in media and applied to cells at 1 or 2 uM for 48 hours prior to addition of Abeta oligomers for 30 minutes. Cultures were then fixed and co-immunolabeled with 6E10 antibody to detect Abeta and antibody to detect PGRMC1 as described above and analyzed via automated image processing as described above. For PGRMC1 measurements, total intensity in cell bodies was measured.

T4 sequence (P35372 whole entry): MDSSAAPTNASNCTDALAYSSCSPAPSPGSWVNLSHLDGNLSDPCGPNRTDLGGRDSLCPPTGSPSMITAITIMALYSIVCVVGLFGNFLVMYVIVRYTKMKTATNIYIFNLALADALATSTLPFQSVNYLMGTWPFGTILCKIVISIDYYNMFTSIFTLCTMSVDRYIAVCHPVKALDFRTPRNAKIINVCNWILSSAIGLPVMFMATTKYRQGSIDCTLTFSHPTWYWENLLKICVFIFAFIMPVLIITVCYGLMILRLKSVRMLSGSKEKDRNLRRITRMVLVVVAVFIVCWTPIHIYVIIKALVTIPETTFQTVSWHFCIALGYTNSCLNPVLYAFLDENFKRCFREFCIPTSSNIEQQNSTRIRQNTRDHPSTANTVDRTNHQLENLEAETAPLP
T1 sequence (Q5BJF2 whole entry): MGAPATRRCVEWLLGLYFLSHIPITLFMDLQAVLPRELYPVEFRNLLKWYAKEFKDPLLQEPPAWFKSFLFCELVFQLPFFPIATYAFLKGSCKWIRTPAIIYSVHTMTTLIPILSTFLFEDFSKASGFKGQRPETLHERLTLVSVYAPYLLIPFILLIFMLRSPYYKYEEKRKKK
T2 sequence (Q5BJF2 whole entry): as above
T3 sequence (Q99720 whole entry): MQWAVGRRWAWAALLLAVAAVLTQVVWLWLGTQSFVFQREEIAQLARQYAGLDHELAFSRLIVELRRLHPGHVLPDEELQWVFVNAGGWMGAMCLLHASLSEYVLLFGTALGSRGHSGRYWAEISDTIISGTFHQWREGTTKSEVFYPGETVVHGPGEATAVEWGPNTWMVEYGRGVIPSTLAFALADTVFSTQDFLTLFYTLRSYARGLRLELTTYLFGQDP
T5 sequence (P35462 whole entry): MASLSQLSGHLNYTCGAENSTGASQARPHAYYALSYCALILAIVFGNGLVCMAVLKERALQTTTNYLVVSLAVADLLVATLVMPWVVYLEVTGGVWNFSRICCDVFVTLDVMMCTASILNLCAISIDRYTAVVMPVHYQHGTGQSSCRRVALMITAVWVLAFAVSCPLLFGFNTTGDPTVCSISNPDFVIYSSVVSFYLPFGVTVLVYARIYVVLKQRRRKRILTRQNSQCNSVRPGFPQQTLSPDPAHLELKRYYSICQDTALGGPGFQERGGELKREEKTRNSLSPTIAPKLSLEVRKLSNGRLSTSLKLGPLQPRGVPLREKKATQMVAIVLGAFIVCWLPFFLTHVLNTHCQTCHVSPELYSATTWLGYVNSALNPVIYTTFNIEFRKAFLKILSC

Compound: COc1cc(CCC(C)NCc2ccc(C(F)(F)F)cc2)ccc1O (centres unmarked) [CT0109]
- Ki (sigma-2/PGRMC1 receptor): 9 ± 7 nM
- Ki [1]: 57 ± 23 nM
- activation of caspase-3/7 (caspase-3/7 [2]): did not
- activation of caspase-3/7 (caspase-3/7 [3]): did not
- concentrations at which cell viability is affected [4]: > 100 µM
- concentrations at which cell viability is affected [5]: > 100 µM
- block of the activation of caspase-3/7 by SV119 (caspase-3/7 [6]): significantly blocked the activation of caspase-3/7 by SV119
- Ki (Sigma-1): 500 nM
- Ki (mu opioid): 1700 nM
- Ki (Na^+ Channel (site2)): 2000 nM
- EC50 (Dopamine 3): 4100 nM
- reversal of Abeta oligomer-mediated trafficking deficits [7]: reverse Abeta oligomer-mediated trafficking deficits
- restoration of synapses (synapses): restore synapses to normal
- restoration of cognitive function [8]: restore cognitive function

Compound: COc1cc2c(cc1OC)CN(CCCCNC(=O)c1cc(C)ccc1OC)CC2 [RHM-1]
- activation of caspase-3/7 (caspase-3/7 [2]): did not
- activation of caspase-3/7 (caspase-3/7 [3]): did not
- concentrations at which cell viability is affected [4]: > 100 µM
- concentrations at which cell viability is affected [5]: > 100 µM
- block of the activation of caspase-3/7 by SV119 (caspase-3/7 [6]): did not

Compound: COc1ccc(C)cc1NC(=O)OC1C[C@H]2CCC[C@@H](C1)N2CCCCCCN (some centres unmarked) [SV-119]
- dose-dependent cell death [4]: caused dose-dependent cell death
- dose-dependent cell death [5]: caused dose-dependent cell death
- activation of caspase 3/7 (caspase-3/7 [6]; 20 to 80 µM for 24 hours, hippocampal and cortical cells, p<0.05 vs control): induced the activation of caspase 3/7

Compound: Fc1ccc(-n2cc(CCCCN3CCC4(CC3)OCc3ccccc34)c3ccccc32)cc1 [siramesine]
- activation of caspase-3/7 (caspase-3/7 [2]): activated caspase-3/7
- activation of caspase-3/7 (caspase-3/7 [3]): activated caspase-3/7
- dose-dependent cell death [4]: caused dose-dependent cell death
- dose-dependent cell death [5]: caused dose-dependent cell death

Compound: Abeta oligomers: synthetic Abeta 1–42 oligomer preparation
- oligomer-induced caspase activation (caspase-3/7 [2]; 21 DIV primary hippocampal and cortical neuronal cultures, 3–48 hours, up to 28 uM): unable to detect oligomer-induced caspase activation
- Kd ([9]; specific and saturable binding, read-out: Kd, binding to a single receptor site on neuronal synaptic puncta): 518 ± 41 nM
- increase of total intensity of sigma-2/PGRMC1 expression in the cell body (sigma-2/PGRMC1; 24 hours): 13%
- increase of total intensity of sigma-2/PGRMC1 expression in the cell body (sigma-2/PGRMC1; 48 hours): 28%

Compound: Non-targeting siRNA: non-targeting sequence UGGUUUACAUGUUUUCCUA, catalog number D-001910-03-50 (further chemistry not given here) [reference compound]
- reduction in Abeta oligomer binding ([9]; siRNA 1 or 2 µM, 48 hours, then Abeta oligomers 30 minutes, vs untreated cultures): has no effect
- reduction in immunocytochemically detectable sigma-2/PGRMC1 protein in neuronal cell body and synaptic puncta (sigma-2/PGRMC1; siRNA 1 or 2 µM, 48 hours, vs untreated cultures): has no effect
